Measurements: ChEMBL document CHEMBL1150518, “Balanced angiotensin II receptor antagonists. III. The effects of substitution at the imidazole 5-position” (Bioorg Med Chem Lett, 1994)

Legend:
[1] = biological target: T1, Type-1 angiotensin II receptor (Homo sapiens, UniProt P30556); experiment: Binding affinity for Angiotensin II receptor, type 1
T1 sequence (P30556 whole entry): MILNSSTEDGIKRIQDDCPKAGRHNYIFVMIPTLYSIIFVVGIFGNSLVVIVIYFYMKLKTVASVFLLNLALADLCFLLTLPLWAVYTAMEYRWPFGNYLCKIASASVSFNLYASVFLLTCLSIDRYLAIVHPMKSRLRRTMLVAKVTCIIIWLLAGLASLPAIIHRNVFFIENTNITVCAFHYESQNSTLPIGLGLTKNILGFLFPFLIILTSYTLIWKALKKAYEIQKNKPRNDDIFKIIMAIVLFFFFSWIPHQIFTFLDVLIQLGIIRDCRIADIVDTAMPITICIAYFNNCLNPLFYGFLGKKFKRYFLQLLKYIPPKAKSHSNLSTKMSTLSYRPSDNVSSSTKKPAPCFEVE

Rattus norvegicus [2] = experiment: Antihypertensive activity of compound was measured in renal hypertensive rat after iv administration; assay type: functional
[3] = biological target: T2, Type-2 angiotensin II receptor (Homo sapiens, UniProt P50052); experiment: Binding affinity for angiotensin II AT-2 receptor
T2 sequence (P50052 whole entry): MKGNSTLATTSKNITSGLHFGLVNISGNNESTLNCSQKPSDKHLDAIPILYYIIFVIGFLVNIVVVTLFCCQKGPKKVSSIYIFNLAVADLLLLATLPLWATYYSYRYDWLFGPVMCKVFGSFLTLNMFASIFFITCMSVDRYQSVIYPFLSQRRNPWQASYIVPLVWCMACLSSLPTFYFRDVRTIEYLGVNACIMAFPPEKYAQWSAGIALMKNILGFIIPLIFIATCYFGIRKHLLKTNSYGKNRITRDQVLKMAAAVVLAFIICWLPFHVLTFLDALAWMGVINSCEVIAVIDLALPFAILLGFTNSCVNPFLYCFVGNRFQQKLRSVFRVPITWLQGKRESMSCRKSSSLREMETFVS

Rattus norvegicus [4] = experiment: Antihypertensive activity of compound was measured in renal hypertensive rat after oral administration; assay type: functional

| SMILES | IC50 [1] | IC50 [3] | ED30 (Rattus norvegicus [2]) | ED30 (Rattus norvegicus [4]) |
| --- | --- | --- | --- | --- |
| CCCc1nc(CC)c(C(=O)O)n1Cc1ccc(-c2ccccc2-c2nnn[nH]2)cc1 | 6 nM | > 1000 nM | 0.005 mg/kg | 0.03 mg/kg |
| CCCc1nc(CC)c(C(=O)OCCCC(=O)c2ccccc2)n1Cc1ccc(-c2ccccc2S(=O)(=O)NC(=O)OCCC(C)C)cc1F | 0.1 nM | 5 nM | – | – |
| CCCc1nc(CC)c(C(=O)OCCCOCc2ccccc2)n1Cc1ccc(-c2ccccc2S(=O)(=O)NC(=O)OCCC(C)C)cc1F | 0.1 nM | 2 nM | – | – |
| CCCc1nc(CC)c(C(=O)OCCCSc2ccccc2)n1Cc1ccc(-c2ccccc2S(=O)(=O)NC(=O)OCCC(C)C)cc1F | 0.2 nM | 2 nM | – | – |

More lines, main results first:

| IC50 [1] | IC50 [3] | SMILES | ED30 (Rattus norvegicus [2]) | ED30 (Rattus norvegicus [4]) |
| --- | --- | --- | --- | --- |
| 1 nM | 2 nM | CCCc1nc(CC)c(C(=O)OCc2ccccc2Sc2ccccc2)n1Cc1ccc(-c2ccccc2S(=O)(=O)NC(=O)OCCC(C)C)cc1F | – | – |
| 0.4 nM | 5 nM | CCCc1nc(CC)c(C(=O)OCc2ccccc2S(=O)(=O)c2ccccc2)n1Cc1ccc(-c2ccccc2S(=O)(=O)NC(=O)OCCC(C)C)cc1F | – | – |
| 0.28 nM | 1.6 nM | CCCOC(=O)NS(=O)(=O)c1ccccc1-c1ccc(Cn2c(CCC)nc(CC)c2C(=O)OCc2ccccc2C(=O)c2ccccc2)c(F)c1 | 0.08 mg/kg | 0.7 mg/kg |
| 0.2 nM | 0.9 nM | CCCCOC(=O)NS(=O)(=O)c1ccccc1-c1ccc(Cn2c(CCC)nc(CC)c2C(=O)OCc2ccccc2C(=O)c2ccccc2)c(F)c1 | – | – |
| 0.5 nM | 0.7 nM | CCCc1nc(CC)c(C(=O)OCc2ccccc2C(=O)c2ccccc2)n1Cc1ccc(-c2ccccc2S(=O)(=O)NC(=O)OCCC(C)C)cc1F | 0.05 mg/kg | 0.9 mg/kg |
